Measurements: ChEMBL document CHEMBL3407472, “Multi-parameter optimization of aza-follow-ups to BI 207524, a thumb pocket 1 HCV NS5B polymerase inhibitor. Part 2: Impact of lipophilicity on promiscuity and in vivo toxicity” (Bioorg Med Chem Lett, 2015)
pEC50, pIC50: −log10 of the molar value. One block for each compound: values may come before it.

Columns and labels:
[1] = Bioavailability in cynomolgous monkey at 5 mg/kg, po and 2 mg/kg, iv; format: ADME, organism-based, Macaca fascicularis; conditions: cynomolgus monkey, in vivo
[2] = AUC in cynomolgous monkey at 5 mg/kg, po and 2 mg/kg, iv; format: ADME, organism-based, Macaca fascicularis; conditions: cynomolgus monkey, plasma
[3] = Clearance in rat at 5 mg/kg, po and 2 mg/kg, iv; format: ADME, organism-based; conditions: in vivo
[4] = Volume of distribution at steady state in cynomolgous monkey at 5 mg/kg, po and 2 mg/kg, iv; format: ADME, organism-based, Macaca fascicularis; conditions: cynomolgus monkey, in vivo, read-out: Vdss
[5] = Permeability from apical to basolateral side of human Caco2 cells; format: ADME, cell-based; conditions: Caco-2, read-out: permeability
[6] = Half life in dog at 5 mg/kg, po and 2 mg/kg, iv; format: ADME, organism-based, Canis lupus familiaris; conditions: in vivo
[7] = Cmax in rat at 5 mg/kg, po and 2 mg/kg, iv; format: ADME, organism-based; conditions: in vivo
[8] = Clearance in cynomolgous monkey at 5 mg/kg, po and 2 mg/kg, iv; format: ADME, organism-based, Macaca fascicularis; conditions: cynomolgus monkey, in vivo
[9] = AUC in dog at 5 mg/kg, po and 2 mg/kg, iv; format: ADME, organism-based, Canis lupus familiaris; conditions: plasma
[10] = Clearance in dog at 5 mg/kg, po and 2 mg/kg, iv; format: ADME, organism-based, Canis lupus familiaris; conditions: in vivo
[11] = Volume of distribution at steady state in dog at 5 mg/kg, po and 2 mg/kg, iv; format: ADME, organism-based, Canis lupus familiaris; conditions: in vivo, read-out: Vdss
[12] = Cmax in dog at 5 mg/kg, po and 2 mg/kg, iv; format: ADME, organism-based, Canis lupus familiaris; conditions: in vivo
Hepatitis C virus [13] = assay: Antiviral activity against Hepatitis C virus genotype 1a infected in human Huh cells assessed as inhibition of viral replication by RT-PCR-based replicon assay; format: functional, cell-based, Hepacivirus hominis; conditions: subtype 1a
[14] = Half life in cynomolgous monkey at 5 mg/kg, po and 2 mg/kg, iv; format: ADME, organism-based, Macaca fascicularis; conditions: cynomolgus monkey, in vivo
[15] = Half life in rat liver microsomes at 2 uM; format: ADME
[16] = Lipophilicity, log D of the compound at pH 7.4; format: physicochemical; conditions: buffer
Hepatitis C virus [17] = assay: Antiviral activity against Hepatitis C virus genotype 1b infected in human Huh cells assessed as inhibition of viral replication by RT-PCR-based replicon assay; format: functional, cell-based, Hepacivirus hominis
[18] = Half life in dog liver microsomes at 2 uM; format: ADME, Canis lupus familiaris
[19] = AUC in rat at 5 mg/kg, po and 2 mg/kg, iv; format: ADME, organism-based; conditions: plasma
[20] = molecular target: Voltage-gated inwardly rectifying potassium channel KCNH2 (Homo sapiens, UniProt Q12809); assay: Inhibition of human ERG channel
Chain of Voltage-gated inwardly rectifying potassium channel KCNH2 (Q12809 whole entry): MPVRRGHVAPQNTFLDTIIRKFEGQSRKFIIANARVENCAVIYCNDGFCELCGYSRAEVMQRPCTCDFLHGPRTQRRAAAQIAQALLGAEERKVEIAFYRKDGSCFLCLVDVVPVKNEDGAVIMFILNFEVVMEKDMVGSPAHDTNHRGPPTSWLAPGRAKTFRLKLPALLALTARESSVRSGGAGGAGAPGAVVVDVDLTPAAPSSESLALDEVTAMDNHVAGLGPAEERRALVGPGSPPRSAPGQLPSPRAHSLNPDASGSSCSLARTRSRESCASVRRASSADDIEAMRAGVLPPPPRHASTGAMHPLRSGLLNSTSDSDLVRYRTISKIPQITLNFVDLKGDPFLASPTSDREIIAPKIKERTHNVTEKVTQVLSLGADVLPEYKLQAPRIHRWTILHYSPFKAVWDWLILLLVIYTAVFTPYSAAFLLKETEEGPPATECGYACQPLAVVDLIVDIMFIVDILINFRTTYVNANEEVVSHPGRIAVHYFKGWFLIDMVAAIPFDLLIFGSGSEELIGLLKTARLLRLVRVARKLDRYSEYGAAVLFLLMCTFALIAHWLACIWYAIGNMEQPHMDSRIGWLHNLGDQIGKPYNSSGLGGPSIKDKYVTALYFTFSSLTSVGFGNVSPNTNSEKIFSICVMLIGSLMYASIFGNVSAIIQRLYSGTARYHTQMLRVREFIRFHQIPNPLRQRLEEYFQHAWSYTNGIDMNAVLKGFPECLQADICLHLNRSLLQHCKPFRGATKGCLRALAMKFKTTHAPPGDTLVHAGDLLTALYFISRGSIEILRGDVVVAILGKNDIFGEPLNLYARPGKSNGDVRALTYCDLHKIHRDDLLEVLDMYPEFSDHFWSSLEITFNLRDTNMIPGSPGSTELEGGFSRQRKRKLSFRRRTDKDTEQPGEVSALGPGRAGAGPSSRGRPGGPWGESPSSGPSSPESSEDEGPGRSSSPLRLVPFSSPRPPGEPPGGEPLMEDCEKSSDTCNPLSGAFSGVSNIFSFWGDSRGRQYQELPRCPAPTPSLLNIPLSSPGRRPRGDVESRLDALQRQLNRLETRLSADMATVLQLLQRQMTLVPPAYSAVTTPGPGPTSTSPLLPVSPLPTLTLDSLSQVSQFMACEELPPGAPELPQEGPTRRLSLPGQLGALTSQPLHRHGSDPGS

[21] = Bioavailability in dog at 5 mg/kg, po and 2 mg/kg, iv; format: ADME, organism-based, Canis lupus familiaris; conditions: in vivo
[22] = Half life in rat at 5 mg/kg, po and 2 mg/kg, iv; format: ADME, organism-based; conditions: in vivo
[23] = Half life in cynomolgous monkey liver microsomes at 2 uM; format: ADME, Macaca fascicularis; conditions: cynomolgus monkey
[24] = Ratio of drug uptake in liver to plasma of rat at 5 mg/kg, po and 2 mg/kg, iv after 6 to 8 hrs; format: ADME, organism-based
[25] = Cmax in cynomolgous monkey at 5 mg/kg, po and 2 mg/kg, iv; format: ADME, organism-based, Macaca fascicularis; conditions: cynomolgus monkey, in vivo
[26] = Bioavailability in rat at 5 mg/kg, po and 2 mg/kg, iv; format: ADME, organism-based; conditions: in vivo
[27] = Volume of distribution at steady state in rat at 5 mg/kg, po and 2 mg/kg, iv; format: ADME, organism-based; conditions: in vivo, read-out: Vdss
[28] = Half life in human liver microsomes at 2 uM; format: ADME
[29] = molecular target: 5-hydroxytryptamine receptor 2A (Homo sapiens, UniProt P28223); assay: Inhibition of serotonin 5-HT2A receptor (unknown origin)
Chain of 5-hydroxytryptamine receptor 2A (P28223 whole entry): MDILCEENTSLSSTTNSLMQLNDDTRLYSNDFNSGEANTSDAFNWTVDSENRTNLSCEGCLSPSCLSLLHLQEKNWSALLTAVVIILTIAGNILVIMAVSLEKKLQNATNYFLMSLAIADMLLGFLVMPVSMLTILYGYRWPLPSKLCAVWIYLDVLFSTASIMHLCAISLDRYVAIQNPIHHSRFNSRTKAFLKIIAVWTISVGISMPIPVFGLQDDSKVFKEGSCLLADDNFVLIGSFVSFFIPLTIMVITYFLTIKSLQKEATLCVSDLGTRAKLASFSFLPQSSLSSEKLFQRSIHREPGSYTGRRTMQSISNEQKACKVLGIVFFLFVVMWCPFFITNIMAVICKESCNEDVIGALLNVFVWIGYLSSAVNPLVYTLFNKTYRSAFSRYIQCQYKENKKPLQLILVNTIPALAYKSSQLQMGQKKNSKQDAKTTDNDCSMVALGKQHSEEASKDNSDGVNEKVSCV

[30] = Lipophilicity, log D of the compound; format: physicochemical; conditions: octanol/water
[31] = Cmax in rat at 2 mg/kg, po each in 0.5% Methylcellulose and 0.3% Tween-80 and 1% N-methylpyrrolidone; format: ADME, organism-based; parameters: dose 2 mg/kg, route oral; conditions: in vivo

bioavailability [1]: 44%
AUC [2]: 12 µM·h
clearance [3]: 4.9 mL/min/kg
Vd [4]: 0.47 L/kg
Papp A→B [5]: 14 ×10⁻⁶ cm/s
half-life [6]: 306 min
Cmax [7]: 5 µM
clearance [8]: 4.6 mL/min/kg
AUC [9]: 48 µM·h
clearance [10]: 1.9 mL/min/kg
Vd [11]: 0.36 L/kg
Cmax [12]: 8.6 µM
pEC50 (Hepatitis C virus [13]): 7.62
half-life [14]: 138 min
half-life at 2 µM [15]: 57 min
logD [16]: > 4.7
pEC50 (Hepatitis C virus [17]): 8.00
half-life at 2 µM [18]: 151 min
AUC [19]: 11 µM·h
bioavailability [21]: 61%
half-life [22]: 126 min
half-life at 2 µM [23]: 26 min
Kp [24]: 6
Cmax [25]: 3.8 µM
bioavailability [26]: 44%
Vd [27]: 0.44 L/kg
half-life at 2 µM [28]: 82 min
Compound: CCOc1nc(NC(=O)C2(NC(=O)c3ccc4c(C5CCCC5)c(-c5ccc(F)cn5)n(C)c4c3)CCC2)ccc1/C=C/C(=O)O
pIC50 [20]: 5.68

pIC50 [29]: 5.28
pEC50 (Hepatitis C virus [13]): 7.68
logD [30]: 3.3
Cmax [31]: 900 nM
half-life at 2 µM [15]: 109 min
logD [16]: 3.3
pEC50 (Hepatitis C virus [17]): 7.92
half-life at 2 µM [28]: 138 min
Compound: CCOc1nc(NC(=O)C(C)(C)NC(=O)c2ccc3c(C4CCCC4)c(-c4ncc(Cl)cn4)n(C)c3c2)cnc1/C=C/C(=O)O
